Among the test systems are HOP-92 NSCLC; HCT-15 colon; A498 renal; NCI-H226 lung; UACC-257 melanoma; SK-MEL-5 melanoma; SW-620 colon; UACC-62 melanoma; IGROV1 ovarian; A549 NSCLC.
Holding throughout (test): NCI-60 cell line screen, 48 h

Each structure is given as a SMILES string.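 Where inhibition never reached the appropriate level, the endpoint shown equals the highest concentration tested. Otherwise, values were interpolated linearly from a five-concentration, 48-hour dose response in 96-well plates. TGI marks complete inhibition of growth.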

Consider `O=C(O)c1cc(Sc2ccc([N+](=O)[O-])c(C(=O)O)c2)ccc1[N+](=O)[O-]`, for which the TGI in the assay with HOP-92 NSCLC, in the assay with HCT-15 colon, in the assay on A498 renal, with NCI-H226 lung, in the assay on UACC-257 melanoma and in the assay with SK-MEL-5 melanoma was more than 100 µM each time. The TGI in the assay with SW-620 colon, in the assay on UACC-62 melanoma, in the assay with IGROV1 ovarian and in the assay on A549 NSCLC was more than 100 µM each time.

Take `CCCCOC(=O)C1CN2C(=NC1(C(F)(F)F)C(F)(F)F)Sc1ccccc12` (stereo not given): the TGI is more than 100 µM in the assay on HOP-92 NSCLC; more than 100 µM with HCT-15 colon; more than 100 µM in the assay with A498 renal; more than 100 µM in the assay on NCI-H226 lung; more than 100 µM with UACC-257 melanoma; 54.2 µM with SK-MEL-5 melanoma. Further, the TGI in the assay with SW-620 colon, in the assay on UACC-62 melanoma, in the assay on IGROV1 ovarian and in the assay on A549 NSCLC was more than 100 µM throughout.

On to `Cc1c2cccc-2c(OCCO)cc2c1[nH]c1ccccc12`, for which the TGI is more than 28.7 µM with HOP-92 NSCLC; 22.9 µM in the assay on HCT-15 colon; more than 31.6 µM with A498 renal; 21 µM in the assay on NCI-H226 lung; 10.7 µM in the assay with UACC-257 melanoma; 2.95 µM in the assay with SK-MEL-5 melanoma. Besides, the TGI was more than 74.7 µM in the assay on SW-620 colon, 8.71 µM with UACC-62 melanoma, 8.92 µM with IGROV1 ovarian and 11.6 µM in the assay on A549 NSCLC.

With `CC[C@@]1(O)C(=O)OCc2c1cc1n(c2=O)Cc2c-1nc1ccccc1c2/C=N\NC(=O)C(C)N` (stereo not given in full), the TGI is 7.7 µM with HOP-92 NSCLC; more than 100 µM with HCT-15 colon; 1.03 µM in the assay on A498 renal; 2.43 µM with NCI-H226 lung; 28.7 µM with UACC-257 melanoma; 1.78 µM in the assay with SK-MEL-5 melanoma. Further, the TGI with SW-620 colon is more than 100 µM; in the assay on UACC-62 melanoma, 0.305 µM; with IGROV1 ovarian, more than 100 µM; in the assay on A549 NSCLC, more than 26.5 µM.

Take `COC(Cc1ccccc1)NC(C)=O` (stereo not given): the TGI in the assay on HOP-92 NSCLC, with HCT-15 colon, with A498 renal, in the assay with NCI-H226 lung, with UACC-257 melanoma and with SK-MEL-5 melanoma was more than 100 µM each time. In addition, the TGI in the assay on SW-620 colon, with UACC-62 melanoma, with IGROV1 ovarian and with A549 NSCLC was more than 100 µM in each case.

Turning to `CC(=O)OC1COC(Nn2c(=O)[nH]c3ccccc3c2=O)C(OC(C)=O)C1OC(C)=O` (stereo not given), the TGI in the assay on HOP-92 NSCLC, with HCT-15 colon, in the assay on A498 renal, with NCI-H226 lung, with UACC-257 melanoma and in the assay on SK-MEL-5 melanoma was more than 100 µM each time. Further, the TGI in the assay with SW-620 colon, in the assay on UACC-62 melanoma, with IGROV1 ovarian and with A549 NSCLC was more than 100 µM in each case.

Take `CC(C)=CCC[C@H](C)[C@H]1CC[C@@H](C)c2cc(O)c(C)cc21`: the TGI in the assay with HOP-92 NSCLC amounted to 32.2 µM; with HCT-15 colon it was 35.1 µM; in the assay with A498 renal, 30.7 µM; in the assay with NCI-H226 lung, 33.3 µM; with UACC-257 melanoma it was 31.7 µM; in the assay on SK-MEL-5 melanoma, 30.4 µM. Moreover, the TGI in the assay with SW-620 colon came to 56.6 µM; with UACC-62 melanoma, 27.9 µM; in the assay on IGROV1 ovarian, 31.4 µM; with A549 NSCLC, 32.6 µM.

Regarding `O=C1NN(c2ccccc2)C(=O)C2C3c4ccccc4C(c4ccccc43)C12` (stereo not given), the TGI in the assay on HOP-92 NSCLC, with HCT-15 colon, with A498 renal, with NCI-H226 lung, in the assay with UACC-257 melanoma and in the assay on SK-MEL-5 melanoma was more than 100 µM each time. Moreover, the TGI with SW-620 colon, with UACC-62 melanoma, in the assay on IGROV1 ovarian and with A549 NSCLC was more than 100 µM in each case.

Consider `CCNc1ncnc2n[nH]nc12`, for which the TGI in the assay on HOP-92 NSCLC, in the assay with HCT-15 colon, in the assay with A498 renal, in the assay on NCI-H226 lung, with UACC-257 melanoma and with SK-MEL-5 melanoma was more than 100 µM each time. Besides, the TGI in the assay with SW-620 colon, in the assay on UACC-62 melanoma, in the assay on IGROV1 ovarian and with A549 NSCLC was more than 100 µM each time.

Regarding `CCOP(=O)(OCC)/C(C#N)=C/c1c(C)[nH]c2ccccc12`, the TGI in the assay on HOP-92 NSCLC, in the assay on HCT-15 colon, with A498 renal, in the assay on NCI-H226 lung, in the assay with UACC-257 melanoma and in the assay on SK-MEL-5 melanoma was more than 100 µM throughout. For the same compound, the TGI in the assay with SW-620 colon, in the assay on UACC-62 melanoma, with IGROV1 ovarian and with A549 NSCLC was more than 100 µM in each case.

With `COc1cc2c(cc1O)C(C)Cc1cc3c(cc1N(C)CC2)OCO3` (stereo not given), the TGI was 18 µM in the assay with HOP-92 NSCLC; 42.7 µM with HCT-15 colon; 39.5 µM in the assay on A498 renal; 19.3 µM in the assay on NCI-H226 lung; more than 47.2 µM with UACC-257 melanoma; 10 µM in the assay with SK-MEL-5 melanoma. The TGI was more than 56.4 µM in the assay with SW-620 colon, 12 µM with UACC-62 melanoma, 73.3 µM with IGROV1 ovarian and 32.6 µM with A549 NSCLC.

Consider `CCN(CC)c1nc(N(C)C)c2cc(OC)ccc2n1`, for which the TGI in the assay with HOP-92 NSCLC was more than 100 µM; with HCT-15 colon, more than 100 µM; with A498 renal, more than 100 µM; in the assay with NCI-H226 lung, 60.1 µM; in the assay with UACC-257 melanoma it was 81.3 µM; in the assay with SK-MEL-5 melanoma it was 34.2 µM. The TGI in the assay on SW-620 colon, in the assay with UACC-62 melanoma, with IGROV1 ovarian and with A549 NSCLC was more than 100 µM each time.

For the compound `c1ccc2c(c1)C(=Nc1ccc(N=C3c4ccccc4-c4ccccc43)cc1)c1ccccc1-2`, the TGI in the assay on HOP-92 NSCLC, in the assay on HCT-15 colon, in the assay with A498 renal, in the assay with NCI-H226 lung, with UACC-257 melanoma and in the assay on SK-MEL-5 melanoma was more than 100 µM throughout. The TGI in the assay with SW-620 colon, in the assay with UACC-62 melanoma, in the assay with IGROV1 ovarian and in the assay with A549 NSCLC was more than 100 µM throughout.

The record behind these values is PubChem BioAssay (NCI).
